Source: ChEMBL document CHEMBL1126761, “A novel constrained reduced-amide inhibitor of HIV-1 protease derived from the sequential incorporation of gamma-turn mimetics into a model substrate” (J Med Chem, 1993)
*1 amine or outer side, *2 acyl side, *3 side chain or, on linkers, in order; H or OH if unused. Where a SMILES comes first, the peptide text is derived from it. [ ]: non-standard residue; d: D form. X1 = CC(N[*:1])C1=CCC(=O)N([C@@H](Cc2ccccc2)C(=O)[*:2])CC1; X2 = O=C([C@@H]1CCCN1C[C@H](Cc1ccccc1)N[*:1])[*:2]

These compounds were tested against Human immunodeficiency virus type 1 protease (Human immunodeficiency virus 1, UniProt Q72874) (assay: Inhibition constant was determined against HIV-1 protease).
With `CC(NC(=O)[C@@H](N)CO)C1=CCC(=O)N([C@@H](Cc2ccccc2)C(=O)N2CCC[C@H]2C(=O)N[C@H](C(=O)N[C@H](C(N)=O)C(C)C)C(C)C)CC1` (some centres not stated) (H-S[X1]PVV-NH2) the Ki was > 2000 µM. Compound `COC(=O)[C@@H](NC(=O)[C@@H](NC(=O)[C@H](C)N1CCC([C@H](C)NC(=O)[C@H](C)N)=CC(Cc2ccccc2)C1=O)C(C)C)C(C)C` (stereo in doubt; form 2) has a Ki of 147 µM. With `COC(=O)[C@@H](NC(=O)[C@H](C(C)C)N1CCC(C(Cc2ccccc2)NC(=O)[C@H](C)NC(=O)[C@H](C)NC(=O)[C@@H](N)CO)=CCC1=O)C(C)C` (stereo in doubt; form 1) the Ki was > 2000 µM. `COC(=O)[C@@H](NC(=O)[C@H](C(C)C)N1CCC(C(Cc2ccccc2)NC(=O)[C@H](C)NC(=O)[C@H](C)NC(=O)[C@@H](N)CO)=CCC1=O)C(C)C` (stereo in doubt; form 2) was tested, and the Ki was 1700 µM. Compound `COC(=O)[C@@H](NC(=O)[C@@H](NC(=O)[C@H](C)N1CCC([C@H](C)NC(=O)[C@H](C)N)=CC(Cc2ccccc2)C1=O)C(C)C)C(C)C` (stereo in doubt; form 1) has a Ki of 372 µM. `COC(=O)[C@@H](NC(=O)[C@@H](NC(=O)[C@H](C)N1CCC([C@H](C)NC(=O)[C@H](C)N)=CC(Cc2ccccc2)C1)C(C)C)C(C)C` (stereo in doubt; form 1) showed a Ki of 0.43 µM. `CC(C)[C@H](NC(=O)[C@@H](NC(=O)[C@@H]1CCCN1C[C@H](Cc1ccccc1)NC(=O)[C@H](C)NC(=O)[C@H](C)NC(=O)[C@@H](N)CO)C(C)C)C(N)=O` (H-SAA[X2]VV-NH2) gave a Ki of 18.8 µM.
